In patent publication US20220098162A1, “APHTHYLAMINE COMPOUND AND BIOLOGICALLY ACCEPTABLE SALT THEREOF, PREPARATION METHOD THEREFOR, AND APPLICATION THEREOF” (Henan Radiomedical Science and Technology Co., Ltd, priority 2019, published 2022):
Structures can show the parent of a compound that is named as a salt.

Legend:
Assay type in all cases: cell-based
PC9 cells = test: MTT experiment, PC9 cells; settings: Homo sapiens, PC-9, 48 hours, hydrochloride salt
Protocol: (§1) Experiment on Inducing Apoptosis of Breast Cancer, Colon Cancer and Lung Cancer Cancer Cells
(§2) Method: collecting logarithmic growth phase MDA-MB-231, MCF-7, HCT-116, PC9-AR, PC9-GR, PC9 cells, counting, adjusting the cell suspension concentration to 50000 cells/mL, adding 100 ul cell suspension to each well, that is, 5000 cells per well, and adding the above cancer cells to the hydrochloride of the naphthylamine compounds of 1a and 3a of the invention, to enable the final concentration of the hydrochloride of the naphthylamine compound in the system to be several gradients of 0.1, 0.3, 1, 3, 10, 30, 100, 300 (μmol/L), and continuing culturing for 48 hours; after treating with drug, adding 50 μL of Thiazole Blue reagent (1 mg/mL) to each well, incubating at 37° C. for 4 hours, shaking the plate to discard the liquid in the well, draining the water, absorbing the remaining liquid with filter paper, and then adding 100 μL of dimethyl sulfoxide; reacting on a horizontal shaker for 7-8 minutes, until the blue-violet crystals are completely dissolved; reading the value with a microplate reader, measuring the OD value at the absorption wavelength of 570 nm, recording the result. […]

PC9AR cells = test: MTT experiment, PC9-AR cells; settings: 48 hours, hydrochloride salt
Protocol: as §1, §2

MDA-MB-231 cells = test: MTT experiment, MDA-MB-231 cells; settings: Homo sapiens; MDA-MB-231, MTT, 48 hours, hydrochloride salt
Protocol: as §1, §2

PC9GR cells = test: MTT experiment, PC9-GR cells; settings: 48 hours, hydrochloride salt
Protocol: as §1, §2

HCT-116 cells = test: MTT experiment, HCT-116 cells; settings: Homo sapiens; HCT-116, MTT, 48 hours, hydrochloride salt
Protocol: as §1, §2

p-STAT3 in HCC827 cells = test: Westernblot experiment, STAT3 and p-STAT3 in IL-6 stimulated HCC827 cells; settings: HCC827, 10, 30, 100 and 300 μmol/L, IL-6 30 ng/mL
Protocol: (1) Taking HCC827 cells in logarithmic growth phase, digesting them with trypsin, preparing a single cell suspension with a density of 300,000 cells/mL with RPMI-1640 medium containing 10% fetal bovine serum, and adding 2 mL of cell suspension to each well to inoculate a 6-well cell culture plate.
(2) Incubating in a 37° C., 5% CO2 incubator. After the cells adhere to the wall, adding the experimental group with different concentrations of the drug SMY002 (3a), and the concentration gradients are: 10, 30, 100 and 300 μmol/L; adding 30 μL of interleukin-6 (IL-6) one hour later at a concentration of […] to stimulate the cells, and the final concentration of interleukin-6 (IL-6) is 30 ng/mL.
(3) After continuing to culture for 0.5 h, lysing the cells with RIPA lysis buffer to collect proteins. […]
(4) Transferring the cell supernatant to a clean centrifuge tube. Dividing the cell supernatant into two parts: taking 5 μL and add it to a 1.5 mL centrifuge tube for BCA to measure the protein content, then adding 45 μL of 1× phosphate buffered saline (PBS) and mixing well for later use; quantitatively taking 140 μL of the remaining cell supernatant, adding 35 μL of 5×SDS loading buffer, boiling in boiling water for 8 minutes after mixing, and storing in a refrigerator at −20° C. after centrifugation. […]

MCF-7 cells = test: MTT experiment, MCF-7 cells; settings: Homo sapiens, MCF7; MCF-7, MTT, 48 hours, hydrochloride salt
Protocol: as §1, §2

| IC50 (PC9 cells) | IC50 (PC9AR cells) | IC50 (MDA-MB-231 cells) | IC50 (PC9GR cells) | IC50 (HCT-116 cells) | IC50 (MCF-7 cells) | SMILES | amount of STAT3 protein expressed (Westernblot) (p-STAT3 in HCC827 cells) | expression of p-STAT3 (Westernblot) (p-STAT3 in HCC827 cells) |
| --- | --- | --- | --- | --- | --- | --- | --- | --- |
| 26600 nM | 38500 nM | 14900 nM | 30400 nM | 25400 nM |  | Nc1ccc(OC(=O)c2ccc(OCCN3CCCCC3)cc2)c2ccccc12 [SMY001 (1a), 4-(2-(piperidin-1-yl)ethoxy) benzoic acid-4-amino-1-naphthyl ester dihydrochloride] |  |  |
| 473 nM | 655 nM | 1810 nM | 472 nM | 1980 nM | 2040 nM | Nc1ccc(OCc2ccc(OCCN3CCCCC3)cc2)c2ccccc12 [SMY002 (3a), 4-(4-(2-(piperidin-1-yl)ethoxy)benzyloxy)-1-naphthylamine dihydrochloride] | remains unchanged | significantly inhibits |
